According to the supplement of paper PMC10307832:

Assays:
Test in all cases: relative viability (nuclei count vs DMSO), 5 days (fraction); higher = more cells survive
Carboplatin + OSI-027 = compound: C1CC(C1)(C(=O)O)C(=O)O.[NH2-].[NH2-].[Pt+2] [Carboplatin] + COc1cccc2cc(-c3nc([C@H]4CC[C@H](C(=O)O)CC4)n4ncnc(N)c34)[nH]c12 [OSI-027] (partner 0.5 µM)
How it was run: (§1)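 Relative viability is defined as nuclei in treated wells over nuclei in vehicle wells. Duplicate plates were run and medians reported. Lung cancer cell lines in 1536-well plates were dosed by pin tool one day after seeding, with one drug or with a fixed anchor-drug dose plus five library-drug doses (not always all listed) in √10 steps, and nuclei were counted after 5 days.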

GSK126 + AZD7762 = compound: CC[C@H](C)N1C=C(C2=C(C=C(C=C21)C3=CN=C(C=C3)N4CCNCC4)C(=O)NCC5=C(C=C(NC5=O)C)C)C [GSK126] + NC(=O)Nc1cc(-c2cccc(F)c2)sc1C(=O)N[C@H]1CCCNC1 [AZD7762] (partner 0.2 µM)
How it was run: as §1

MLN4924 + OSI-027 = compound: NS(=O)(=O)OC[C@@H]1C[C@@H](n2ccc3c(N[C@H]4CCc5ccccc54)ncnc32)C[C@@H]1O [MLN4924] + COc1cccc2cc(-c3nc([C@H]4CC[C@H](C(=O)O)CC4)n4ncnc(N)c34)[nH]c12 [OSI-027] (partner 0.5 µM)
How it was run: as §1

MLN4924 + Phenformin = compound: NS(=O)(=O)OC[C@@H]1C[C@@H](n2ccc3c(N[C@H]4CCc5ccccc54)ncnc32)C[C@@H]1O [MLN4924] + N=C(N)NC(=N)NCCc1ccccc1 [Phenformin] (partner 250 µM)
How it was run: as §1

Row | Cell Line | relative viability (Carboplatin + OSI-027; first compound 0.08 µM) | relative viability (Carboplatin + OSI-027; first compound 0.253 µM) | relative viability (Carboplatin + OSI-027; first compound 0.8 µM) | relative viability (Carboplatin + OSI-027; first compound 2.53 µM) | relative viability (Carboplatin + OSI-027; first compound 8 µM) | relative viability (GSK126 + AZD7762; first compound 0.08 µM) | relative viability (GSK126 + AZD7762; first compound 0.253 µM) | relative viability (GSK126 + AZD7762; first compound 0.8 µM) | relative viability (GSK126 + AZD7762; first compound 2.53 µM) | relative viability (GSK126 + AZD7762; first compound 8 µM) | relative viability (MLN4924 + OSI-027; first compound 0.04 µM) | relative viability (MLN4924 + OSI-027; first compound 0.1265 µM) | relative viability (MLN4924 + OSI-027; first compound 0.4 µM) | relative viability (MLN4924 + OSI-027; first compound 1.265 µM) | relative viability (MLN4924 + OSI-027; first compound 4 µM) | relative viability (MLN4924 + Phenformin; first compound 0.04 µM) | relative viability (MLN4924 + Phenformin; first compound 0.1265 µM) | relative viability (MLN4924 + Phenformin; first compound 0.4 µM) | relative viability (MLN4924 + Phenformin; first compound 1.265 µM) | relative viability (MLN4924 + Phenformin; first compound 4 µM)
1 | LU99A | 0.307 | 0.299 | 0.269 | 0.3 | 0.283 | 0.37 | 0.254 | 0.338 | 0.346 | 0.392 | 0.293 | 0.315 | 0.247 | 0.196 | 0.222 | 0.477 | 0.622 | 0.437 | 0.196 | 0.213
2 | NCI-H1355 | 0.476 | 0.375 | 0.413 | 0.377 | 0.415 | 0.814 | 0.658 | 0.688 | 0.746 | 0.479 | 0.456 | 0.388 | 0.277 | 0.221 | 0.231 | 0.42 | 0.407 | 0.352 | 0.218 | 0.235
3 | HCC-15 | 0.833 | 0.664 | 0.689 | 0.635 | 0.439 | 1.36 | 1.17 | 1.12 | 0.645 | 1.07 | 0.347 | 0.197 | 0.139 | 0.0813 | 0.0848 | 0.319 | 0.191 | 0.145 | 0.0825 | 0.0982
4 | LXF-289 | 0.882 | 0.871 | 0.816 | 0.828 | 0.716 | 1.16 | 1.11 | 0.956 | 1.1 | 1.09 | 0.833 | 0.713 | 0.569 | 0.165 | 0.13 | 0.491 | 0.41 | 0.293 | 0.163 | 0.121
5 | 201T | 0.828 | 0.749 | 0.824 | 0.68 | 0.349 | 0.704 | 0.622 | 0.617 | 0.65 | 0.567 | 0.824 | 0.857 | 0.46 | 0.139 | 0.115 | 0.553 | 0.555 | 0.43 | 0.278 | 0.327
6 | HOP-62 | 0.905 | 0.808 | 0.823 | 0.777 | 0.726 | 0.67 | 0.757 | 0.819 | 0.528 | 0.363 | 0.73 | 0.565 | 0.337 | 0.0849 | 0.132 | 0.393 | 0.335 | 0.134 | 0.0578 | 0.0991
7 | NCI-H1703 | – | – | – | – | – | 0.115 | 0.115 | 0.133 | 0.118 | 0.137 | – | – | – | – | – | – | – | – | – | –
8 | NCI-H1975 | 0.901 | 0.823 | 0.713 | 0.762 | 0.754 | 0.775 | 0.703 | 0.682 | 0.784 | 0.64 | 0.704 | 0.934 | 1 | 0.618 | 0.261 | 0.418 | 0.479 | 0.494 | 0.328 | 0.184
9 | NCI-H2023 | 0.481 | 0.424 | 0.318 | 0.198 | 0.123 | – | – | – | – | – | 0.383 | 0.361 | 0.163 | 0.0645 | 0.0536 | 0.392 | 0.393 | 0.175 | 0.0707 | 0.0769
10 | COR-L23 | 0.894 | 0.903 | 0.618 | 0.466 | 0.231 | – | – | – | – | – | 0.718 | 0.602 | 0.555 | 0.199 | 0.119 | 0.42 | 0.332 | 0.326 | 0.133 | 0.0871
11 | NCI-H1793 | 0.32 | 0.337 | 0.284 | 0.296 | 0.312 | 0.646 | 0.394 | 0.299 | 0.592 | 0.292 | 0.293 | 0.26 | 0.303 | 0.243 | 0.261 | 0.292 | 0.367 | 0.313 | 0.224 | 0.183
12 | A549 | – | – | – | – | – | – | – | – | – | – | – | – | – | – | – | 0.0967 | 0.154 | 0.0425 | 0.0445 | 0.0437
13 | CAL-12T | 0.696 | 0.603 | 0.735 | 0.779 | 0.526 | 0.751 | 0.562 | 0.622 | 0.554 | 0.589 | 0.619 | 0.593 | 0.283 | 0.184 | 0.113 | 0.511 | 0.511 | 0.292 | 0.214 | 0.129
14 | NCI-H1993 | 0.463 | 0.556 | 0.566 | 0.51 | 0.498 | 0.836 | 0.754 | 0.702 | 0.9 | 0.795 | 0.549 | 0.523 | 0.532 | 0.488 | 0.52 | 0.535 | 0.579 | 0.528 | 0.468 | 0.487
15 | ChaGo-K-1 | 0.614 | 0.473 | 0.527 | 0.42 | 0.316 | 0.881 | 0.87 | 0.836 | 0.893 | 0.874 | 0.461 | 0.35 | 0.272 | 0.181 | 0.176 | 0.315 | 0.298 | 0.24 | 0.199 | 0.176
16 | SW 900 | 0.726 | 0.533 | 0.49 | 0.465 | 0.412 | 0.765 | 0.559 | 0.582 | 0.585 | 0.58 | 0.266 | 0.412 | 0.217 | 0.0913 | 0.152 | 0.205 | 0.483 | 0.258 | 0.15 | 0.128
17 | NCI-H2342 | 0.785 | 0.731 | 0.717 | 0.534 | 0.608 | 0.543 | 0.425 | 0.477 | 0.619 | 0.58 | 0.586 | 0.779 | 0.532 | 0.594 | 0.547 | 0.705 | 0.661 | 0.613 | 0.551 | 0.501
